According to ChEMBL document CHEMBL3124939, “Evaluation of nicotine and cotinine analogs as potential neuroprotective agents for Alzheimer's disease” (2014):
The source made the active and inactive calls. The calls are words filed in the database; no cut-off is given here.

What was measured:
Type in all cases: functional, cell-based
[1] = system: Cerebral cortex neuron; test: Neuroprotective activity in Sprague-Dawley rat primary cortical neurons assessed as inhibition of glutamate-induced toxicity by measuring cell viability at 0.01 uM by trypan blue exclusion assay
[2] = system: Cerebral cortex neuron; test: Neuroprotective activity in Sprague-Dawley rat primary cortical neurons assessed as inhibition of amyloid beta 1 to 42-induced toxicity by measuring cell viability at 0.1 uM by trypan blue exclusion assay
[3] = system: Cerebral cortex neuron; test: Neuroprotective activity in Sprague-Dawley rat primary cortical neurons assessed as inhibition of amyloid beta 1 to 42-induced toxicity by measuring cell viability at 100 uM by trypan blue exclusion assay
[4] = system: Cerebral cortex neuron; test: Neuroprotective activity in Sprague-Dawley rat primary cortical neurons assessed as inhibition of glutamate-induced toxicity by measuring cell viability at 10 uM by trypan blue exclusion assay

Compound: CN1CCC[C@H]1c1ccc[n+]([O-])c1
- Activity [1]: Active

Compound: CN1C(=O)CC[C@H]1c1cccnc1
- Activity [2]: Active

Compound: C[N+]1=CCC[C@H]1c1cccnc1
- Activity [3]: Active

Compound: CC12CC3CC(C)(C1)CC(N)(C3)C2
- Activity [4]: Active

Compound: CN1CCC[C@H]1c1cccnc1
- Activity [2]: Active

Compound: O=C1CCC(c2cccnc2)N1 (stereo unspecified)
- Activity [3]: Active
